Experiment in all cases: microbe, parasite or virus in culture
What all share (design): CLSI broth microdilution MIC in LB, lowest concentration with no visible growth

The subject of assay [1] is T1, E. coli ZJ487 (NDM-1).
T1 construct: ZJ487 (NDM-1)
As to conditions: Escherichia coli; antibiotic alone; read-out: MIC (μg/mL) Alone.
Method: (§1) MIC values were determined according to the broth microdilution guidelines of the Clinical and Laboratory Standards Institute (CLSI). After the tested strains were diluted with LB to a final concentration of 5×10^5 CFUs/mL, various concentrations of meropenem (0-256 μg/mL) and increasing concentrations of inhibitors (0-64 μg/mL) were added to the sterile 96-well plate, and further incubated for 18-24 h at 37 °C. The lowest concentration with no visible growth was considered as the MIC value. The synergistic effect of antibiotics and inhibitors was assessed by determining the fractional inhibitory concentration (FIC) index values according to the formula: FICI = (MIC of inhibitors in combination/MIC of inhibitors) + (MIC of antibiotics in combination/MIC of antibiotics).

Assay [2] deals with T2, E. coli D3 (NDM-1).
T2 construct: D3 (NDM-1)
As to conditions: Escherichia coli; antibiotic alone; read-out: MIC (μg/mL) Alone.
Method: as §1

The test system of assay [3] is T3, E. cloacae 20712 (VIM-1).
T3 construct: 20712 (VIM-1)
As to conditions: Enterobacter cloacae; antibiotic alone; read-out: MIC (μg/mL) Alone.
Method: as §1

Assay [4] relates to T4, E. cloacae 20710 (VIM-1).
T4 construct: 20710 (VIM-1)
To be noted: Enterobacter cloacae; antibiotic alone; read-out: MIC (μg/mL) Alone.
Method: as §1

The test system of assay [5] is T5, E. coli ZC-YN3 (NDM-1).
T5 construct: ZC-YN3 (NDM-1)
To be noted: Escherichia coli; antibiotic alone; read-out: MIC (μg/mL) Alone.
Method: as §1

The test system of assay [6] is T6, E. coli E1 (NDM-1).
T6 construct: E1 (NDM-1)
To be noted: Escherichia coli; antibiotic alone; read-out: MIC (μg/mL) Alone.
Method: (§2) MIC values were determined according to the broth microdilution guidelines of the Clinical and Laboratory Standards Institute (CLSI). After the tested strains were diluted with LB to a final concentration of 5×10^5 CFUs/mL, various concentrations of meropenem (0-256 μg/mL) and increasing concentrations of inhibitors (0-64 μg/mL) were added to the sterile 96-well plate, and further incubated for 18-24 h at 37 °C. The lowest concentration with no visible growth was considered as the MIC value.

In assay [7] the test system is T7, E. coli BL21 (pET28a-SP-NDM-1).
T7 construct: BL21 (pET28a-SP-NDM-1)
To be noted: Escherichia coli, read-out: MIC (μg/mL) Alone.
Method: as §1

The subject of assay [8] is T8, E. coli ATCC 25922.
T8 construct: ATCC 25922
To be noted: Escherichia coli, ATCC25922; antibiotic alone; read-out: MIC (μg/mL) Alone.
Method: as §2

The test system of assay [9] is T9, E. coli E2 (NDM-9).
T9 construct: E2 (NDM-9)
As to conditions: Escherichia coli; antibiotic alone; read-out: MIC (μg/mL) Alone.
Method: as §1

The subject of assay [10] is T10, K. pneumoniae QD-KP2 (NDM-1).
T10 construct: QD-KP2 (NDM-1)
As to conditions: Klebsiella pneumoniae; antibiotic alone; read-out: MIC (μg/mL) Alone.
Method: as §2

Assay [11] deals with T11, E. coli 2Z49 (NDM-5).
T11 construct: 2Z49 (NDM-5)
To be noted: Escherichia coli; antibiotic alone; read-out: MIC (μg/mL) Alone.
Method: as §2

The test system of assay [12] is T12, K. pneumoniae QD-KP1 (NDM-1).
T12 construct: QD-KP1 (NDM-1)
As to conditions: Klebsiella pneumoniae; antibiotic alone; read-out: MIC (μg/mL) Alone.
Method: as §2

For assay [13], the system named is T13, E. coli ZC-YN7 (NDM-9).
T13 construct: ZC-YN7 (NDM-9)
As to conditions: Escherichia coli; antibiotic alone; read-out: MIC (μg/mL) Alone.
Method: as §1

Assay [14] has as its system T14, K. pneumoniae QD-KP3 (NDM-1).
T14 construct: QD-KP3 (NDM-1)
As to conditions: Klebsiella pneumoniae; antibiotic alone; read-out: MIC (μg/mL) Alone.
Method: as §1

Assay [15] concerns T15, E. coli E4 (NDM-5).
T15 construct: E4 (NDM-5)
To be noted: Escherichia coli; antibiotic alone; read-out: MIC (μg/mL) Alone.
Method: as §1

The test system of assay [16] is T16, E. coli 2Z69 (NDM-5).
T16 construct: 2Z69 (NDM-5)
As to conditions: Escherichia coli; antibiotic alone; read-out: MIC (μg/mL) Alone.
Method: as §1

Converted amounts (≈) assume the structure as drawn.

Consider `CC1(C)S[C@@H]2[C@H](NC(=O)[C@H](N)c3ccc(O)cc3)C(=O)N2[C@H]1C(=O)O` [Amoxicillin], for which, in assay [1], the MIC was 512 µg/mL (≈ 1400 µM).
On the same count and under the same terms, next, `CNC(C)[C@@H]1CC[C@@H](N)[C@@H](O[C@H]2[C@H](O)[C@@H](O[C@H]3OC[C@](C)(O)[C@H](NC)[C@H]3O)[C@H](N)C[C@@H]2N)O1` (stereo partly drawn) [Gentamicin]: 341 ± 121 µg/mL (≈ 715 µM); `O=C(N[C@H](CO)[C@H](O)c1ccc([N+](=O)[O-])cc1)C(Cl)Cl` [Chloramphenicol]: 8 µg/mL (≈ 24.8 µM).
Turning to `CN(C)[C@@H]1C(O)=C(C(N)=O)C(=O)[C@@]2(O)C(O)=C3C(=O)c4c(O)cccc4[C@@](C)(O)[C@H]3C[C@@H]12` [Tetracycline], the MIC in assay [1] amounted to 213 ± 60.3 µg/mL (≈ 480 µM).
As for `C[C@@H](O)[C@H]1C(=O)N2C(C(=O)O)=C(S[C@@H]3CN[C@H](C(=O)N(C)C)C3)[C@H](C)[C@H]12` [Meropenem], the MIC came to 13.3 ± 3.77 µg/mL (≈ 34.8 µM) in assay [2]; 32 µg/mL (≈ 83.4 µM) in assay [3]; 32 µg/mL (≈ 83.4 µM) in assay [4]; 21.3 ± 7.54 µg/mL (≈ 55.6 µM) in assay [5]; 13.3 ± 3.77 µg/mL (≈ 34.8 µM) in assay [6]; 128 µg/mL (≈ 334 µM) in assay [7]. Moreover, the MIC is 0.03 µg/mL (≈ 0.0782 µM) in assay [8]; 32 µg/mL (≈ 83.4 µM) in [1]; 53.3 ± 15.1 µg/mL (≈ 139 µM) in [9]; 107 ± 30.2 µg/mL (≈ 278 µM) in [10]; 32 µg/mL (≈ 83.4 µM) in assay [11]; 64 µg/mL (≈ 167 µM) in [12]. The MIC in assay [13] stood at 13.3 ± 3.77 µg/mL (≈ 34.8 µM); in assay [14], 128 µg/mL (≈ 334 µM); in assay [15], 53.3 ± 15.1 µg/mL (≈ 139 µM); in assay [16], 32 µg/mL (≈ 83.4 µM).
Regarding `C[C@@H](O)[C@H]1C(=O)N2C(C(=O)O)=C(SCCNC=N)C[C@H]12` [Imipenem], the MIC in assay [1] stood at 13.3 ± 3.77 µg/mL (≈ 44.5 µM).
